# Reference: ChEMBL document CHEMBL4622872, “Discovery of DS-1971a, a Potent, Selective NaV1.7 Inhibitor” (J Med Chem, 2020)
# Legend:
# [1] = Distribution coefficient, log D of the compound in 1-octanol and PBS buffer at pH 7.4 measured after 30 mins by LC-MS analysis; format: physicochemical; details: 1-octanol/PBS buffer
# [2] = Aqueous thermodynamic solubility of the compound at pH 6.8 measured after 4 hrs by UV-HPLC analysis; format: physicochemical; details: buffer, pH 6.8; read-out: Therm_solubility
# [3] = Stability of the compound in mouse liver microsomes assessed as parent compound remaining measured after 0.5 hrs; format: ADME, Microsome; details: mouse liver microsomes, read-out: Stability
logD at 0.5 h [1],solubility thermodynamic at 4 h [2],remaining at 0.5 h [3],SMILES
0.7,> 2000 µM,75%,Cn1nccc1[C@H]1CCCC[C@@H]1Oc1cc(F)c(S(=O)(=O)Nc2ncns2)cc1F (racemic)
0.3,740 µM,100%,Cn1nccc1[C@H]1CCC[C@@H]1Oc1cc(F)c(S(=O)(=O)Nc2ccncn2)cc1F (racemic)
0.6,1040 µM,97%,Cn1nccc1[C@H]1CCCCC[C@@H]1Oc1cc(F)c(S(=O)(=O)Nc2ccncn2)c(F)c1 (racemic)
0.1,1800 µM,80%,Cn1nccc1[C@H]1CCC[C@@H]1Oc1cc(F)c(S(=O)(=O)Nc2ccncn2)c(F)c1 (racemic)
